Experimental findings from US20130259935A1, “PHARMACEUTICAL COMPOSITIONS COMPRISING GLIMEPIRIDE AND POLYETHYLENE GLYCOL CASTOR OIL” (LEK PHARMACEUTICALS D.D., priority 2010, published 2013) are described below.

The data set in a line: Solubility of glimepiride, pH-dependent. To be noted: for solubility: phosphate buffer, thermodynamic from solid. In kind it is physicochemical. The method, then:
Glimepiride has very low and pH-dependent solubility. […] In media with pH around 7 the solubility of glimepiride is 0.001 mg/mL. At a pH 8, the solubility of glimepiride only slightly increases to 0.03 mg/mL. […] Being insoluble according to the present invention means that the solubility in water is lower than 10 mg/mL. […] Solubility as meant herein is measured using USP apparatus 2 with agitation at 75 RPM. The dissolution medium is phosphate buffer maintained at 37° C. Dissolution as meant herein is measured using HPLC.

Structures are written as SMILES. ≈ marks a conversion by molar mass, not a printed value.

One may read the solubility as the concentration that dissolves in the medium under given conditions. Consider `CCC1=C(C)CN(C(=O)NCCc2ccc(S(=O)(=O)NC(=O)N[C@H]3CC[C@H](C)CC3)cc2)C1=O` [glimepiride, Glimepiride], for which the solubility by setting is: (37 °C, pH 8, aqueous buffer) 30 µg/mL (≈ 61.1 µM); (aqueous buffer, acidic medium, 37° C.) < 1 µg/mL. The “solubility in water (in words)” value (water, insoluble means lower than 10 mg/mL) is given as “insoluble in water”.
